Results taken from article PMC11272598, “RG7774 (Vicasinabin), an orally bioavailable cannabinoid receptor 2 (CB2R) agonist, decreases retinal vascular permeability, leukocyte adhesion, and ocular inflammation in animal models” (Frontiers in Pharmacology, 2024).

Experiments:
[1] = Plasma PK profile in mice; format: in vivo, C57BL/6J mice
Method: The plasma PK profile of RG7774 was assessed in adult male C57BL/6J mice and female Wistar rats (Charles River, Cologne, Germany) housed in a controlled environment (temperature, humidity, and 12 h light/dark cycle) with unrestricted access to food and water. The ocular PK profile of RG7774 was assessed in adult female […] rats (Charles River, Mattawan, MI, United States) housed in a controlled environment (21°C–22°C temperature, 40%–60%, humidity, and 12 h light/dark cycle) with unrestricted access to food and water and conducted according to local regulations by EyeCRO (Ann Arbor, MI, United States).
In the first study (animal permission #1857), mice received RG7774 as an intravenous (IV) bolus at 1 mg/kg (n = 6) or as an oral (PO) dose at 3 mg/kg (n = 5). In the second study (animal permission #2373), rats received RG7774 as an IV bolus at 10 mg/kg (n = 4) or via gavage at 30 mg/kg (n = 3). Blood samples were collected 0.1, 1, 3, 10, and 24 h post-dose under deep anesthesia with 3%–5% isoflurane in 100% O2. Samples were collected sublingually from mice, from the tail vein in rats or via heart puncture (terminal) into anticoagulant-coated polypropylene tubes and placed on ice. Plasma was prepared within 30 min of collection by centrifugation at 3,000 g for 5 min at 4°C and was immediately frozen. RG7774 concentrations in plasma were determined using LC-MS/MS. PK parameters were estimated by non-compartmental analysis of plasma data using Phoenix WinNonlin software (Certara, Princeton, NJ, United States).

[2] = Thermodynamic solubility (THESA/FaSSIF/FeSSIF); format: physicochemical
Text: S2.2 Thermodynamic solubility assay (THESA)

[3] = male, C57BL/6J, mouse, plasma, IV 1 mg/kg
[4] = male, C57BL/6J, mouse, plasma, PO 3 mg/kg

With Cn1nnnc1Cn1nnc2c(N3CC[C@H](O)C3)nc(C(C)(C)C)nc21 [RG7774, (S)-1-(5-tert-butyl-3-[(1-methyl-1H-tetrazol-5-yl)methyl]-3H-[1,2,3]triazolo[4,5-d]pyrimidin-7-yl)pyrrolidin-3-ol] the AUCinf/dose ([1]; IV 1 mg/kg) was 1,230 ng h^–1 ml^–1 (mg kg^−1) ^−1, the AUCinf/dose ([1]; PO 3 mg/kg) was 490 ng h^–1 ml^–1 (mg kg^−1) ^−1 and the Cmax/dose ([1]; PO 3 mg/kg) was 487 ng ml^–1 (mg kg^–1) ^−1. For the same compound, the clearance [1, 3] was 13.2 mL/min/kg, the half-life [1, 3] was 9.04 h and the Vd ([1]; male, C57BL/6J, mouse, plasma, IV 1 mg/kg, read-out: Vss) was 3.7 L/kg. The Tmax [1, 4] was 0.25 h, the bioavailability [1, 4] was 42.2% and the half-life [1, 4] was 2.1 h. The FaSSIF ([2]; fasted simulated gastrointestinal fluid) was 1177 µg/mL, the FeSSIF ([2]; fed simulated gastrointestinal fluid) was 2872 µg/mL and the THESA ([2]; thermodynamic solubility) was 901 µg/mL.
